Measured values as given in PubChem BioAssay (NCI).
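Test compounds were applied to cells in 96-well plates for 48 hours at 5 doses. At the TGI there is no net growth.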

Tests used:
Experiment in all cases: NCI anticancer screen, dose series, 48 h
[1] = test system: OVCAR-3 ovarian
[2] = test system: OVCAR-4 ovarian
[3] = test system: A498 renal
[4] = test system: A549 NSCLC
[5] = test system: HL-60(TB) leukemia
[6] = test system: OVCAR-5 ovarian
[7] = test system: LXFL 529 NSCLC
[8] = test system: EKVX NSCLC
[9] = test system: DMS 114 small cell lung
[10] = test system: SNB-78 CNS
[11] = test system: OVCAR-8 ovarian
[12] = test system: HCT-116 colon
[13] = test system: SK-OV-3 ovarian
[14] = test system: HOP-62 NSCLC
[15] = test system: RXF-631 renal
[16] = test system: SF-295 CNS
[17] = test system: LOX IMVI melanoma
[18] = test system: HCC-2998 colon
[19] = test system: MOLT-4 leukemia
[20] = test system: KM20L2 colon
[21] = test system: 786-0 renal
[22] = test system: UACC-257 melanoma
[23] = test system: HOP-92 NSCLC
[24] = test system: RPMI-8226 leukemia
[25] = test system: DMS 273 small cell lung
[26] = test system: M14 melanoma
[27] = test system: SK-MEL-28 melanoma
[28] = test system: K-562 leukemia
[29] = test system: NCI-H23 lung
[30] = test system: COLO 205 colon
[31] = test system: SK-MEL-5 melanoma
[32] = test system: TK-10 renal
[33] = test system: U251 CNS
[34] = test system: M19-MEL melanoma
[35] = test system: CAKI-1 renal
[36] = test system: IGROV1 ovarian
[37] = test system: MALME-3M melanoma
[38] = test system: SK-MEL-2 melanoma
[39] = test system: NCI-H460 lung
[40] = test system: SNB-75 CNS
[41] = test system: UACC-62 melanoma
[42] = test system: HOP-18 NSCLC
[43] = test system: HCT-15 colon
[44] = test system: DLD-1 colon
[45] = test system: CCRF-CEM leukemia
[46] = test system: KM12 colon
[47] = test system: HT29 colon
[48] = test system: SF-539 CNS
[49] = test system: SW-620 colon
[50] = test system: NCI-H522 lung
[51] = test system: UO-31 renal
[52] = test system: SF-268 CNS
[53] = test system: SNB-19 CNS
[54] = test system: NCI-H226 lung
[55] = test system: ACHN renal
[56] = test system: RXF 393 renal
[57] = test system: SN12C renal
[58] = test system: XF 498 CNS
[59] = test system: SR leukemia
[60] = test system: NCI/ADR-RES ovarian
[61] = test system: BT-549 breast
[62] = test system: MCF7 breast
[63] = test system: T-47D breast
[64] = test system: MDA-N
[65] = test system: MDA-MB-231 breast
[66] = test system: HS 578T breast
[67] = test system: MDA-MB-435
[68] = test system: DU-145 prostate
[69] = test system: PC-3 prostate

CNC(=O)NCNC(=O)NC
TGI [1]: > 100 µM | TGI [2]: > 100 µM | TGI [3]: > 100 µM | TGI [4]: > 100 µM | TGI [5]: > 100 µM | TGI [6]: > 100 µM | TGI [7]: > 100 µM | TGI [8]: > 100 µM | TGI [9]: > 100 µM | TGI [10]: > 100 µM | TGI [11]: > 100 µM | TGI [12]: > 100 µM | TGI [13]: > 100 µM | TGI [14]: > 100 µM | TGI [15]: > 100 µM | TGI [16]: > 100 µM | TGI [17]: > 100 µM | TGI [18]: > 100 µM | TGI [19]: > 100 µM | TGI [20]: > 100 µM | TGI [21]: > 100 µM | TGI [22]: > 100 µM | TGI [23]: > 100 µM | TGI [24]: > 100 µM | TGI [25]: > 100 µM | TGI [26]: > 100 µM | TGI [27]: > 100 µM | TGI [28]: > 100 µM | TGI [29]: > 100 µM | TGI [30]: > 100 µM | TGI [31]: > 100 µM | TGI [32]: > 100 µM | TGI [33]: > 100 µM | TGI [34]: > 100 µM | TGI [35]: > 100 µM | TGI [36]: > 100 µM | TGI [37]: > 100 µM | TGI [38]: > 100 µM | TGI [39]: > 100 µM | TGI [40]: > 100 µM | TGI [41]: > 100 µM | TGI [42]: > 100 µM | TGI [43]: > 100 µM | TGI [44]: > 100 µM | TGI [45]: > 100 µM | TGI [46]: > 100 µM | TGI [47]: > 100 µM | TGI [48]: > 100 µM | TGI [49]: > 100 µM

COc1cc2c3cc1Oc1c(O)c(OC)cc4c1C(Cc1ccc(O)c(c1)Oc1ccc(cc1)CC3N(C)CC2)N(C)CC4 (configuration not stated)
TGI [1]: 30.5 µM | TGI [50]: 29.7 µM | TGI [2]: 28.2 µM | TGI [51]: 29.3 µM | TGI [3]: 32.2 µM | TGI [4]: 31.4 µM | TGI [5]: 48.4 µM | TGI [6]: 38.4 µM | TGI [7]: 17.1 µM | TGI [8]: 37.1 µM | TGI [9]: 44.8 µM | TGI [10]: 50.7 µM | TGI [11]: 28.4 µM | TGI [12]: 22.5 µM | TGI [13]: 40.1 µM | TGI [14]: 33.8 µM | TGI [52]: 31.9 µM | TGI [16]: 29.7 µM | TGI [17]: 10.7 µM | TGI [18]: 13.6 µM | TGI [19]: 30.8 µM | TGI [20]: 17.4 µM | TGI [21]: 25.9 µM | TGI [22]: 33.4 µM | TGI [23]: 24.3 µM | TGI [53]: 68 µM | TGI [24]: 84.4 µM | TGI [25]: 30.6 µM | TGI [26]: 7.8 µM | TGI [27]: 32.8 µM | TGI [54]: 38.3 µM | TGI [28]: 10.3 µM | TGI [55]: 33.7 µM | TGI [29]: 39 µM | TGI [30]: 43.4 µM | TGI [31]: 32.9 µM | TGI [32]: 18.2 µM | TGI [33]: 27.3 µM | TGI [34]: 43.8 µM | TGI [35]: 32.4 µM | TGI [36]: 56.1 µM | TGI [37]: 32.8 µM | TGI [38]: 38.4 µM | TGI [39]: 28.4 µM | TGI [56]: 9.7 µM | TGI [40]: 35.3 µM | TGI [41]: 42.9 µM | TGI [42]: 45 µM | TGI [43]: 23.8 µM | TGI [45]: 36.7 µM | TGI [46]: 23.6 µM | TGI [47]: 18.9 µM | TGI [57]: 28.6 µM | TGI [48]: 5.8 µM | TGI [49]: 16.7 µM | TGI [58]: 33.5 µM

N#Cc1ccc(Cc2ccccn2)cc1Cl
TGI [50]: > 100 µM | TGI [2]: > 100 µM | TGI [51]: > 100 µM | TGI [4]: > 100 µM | TGI [5]: > 100 µM | TGI [6]: > 100 µM | TGI [7]: > 100 µM | TGI [8]: > 100 µM | TGI [9]: > 100 µM | TGI [10]: > 100 µM | TGI [11]: > 100 µM | TGI [13]: > 100 µM | TGI [14]: > 100 µM | TGI [52]: > 100 µM | TGI [15]: > 100 µM | TGI [16]: > 100 µM | TGI [17]: > 100 µM | TGI [19]: > 100 µM | TGI [21]: > 100 µM | TGI [22]: > 100 µM | TGI [23]: > 100 µM | TGI [53]: > 100 µM | TGI [25]: > 100 µM | TGI [27]: > 100 µM | TGI [54]: > 100 µM | TGI [28]: > 100 µM | TGI [55]: > 100 µM | TGI [29]: > 100 µM | TGI [30]: > 100 µM | TGI [31]: > 100 µM | TGI [32]: > 100 µM | TGI [33]: > 100 µM | TGI [34]: > 100 µM | TGI [35]: > 100 µM | TGI [36]: > 100 µM | TGI [37]: > 100 µM | TGI [38]: > 100 µM | TGI [39]: > 100 µM | TGI [56]: > 100 µM | TGI [41]: > 100 µM | TGI [42]: > 100 µM | TGI [59]: > 100 µM | TGI [44]: > 100 µM | TGI [45]: > 100 µM | TGI [46]: > 100 µM | TGI [47]: > 100 µM | TGI [57]: > 100 µM | TGI [48]: > 100 µM | TGI [49]: > 100 µM

CCCCCCCCCCCC(=O)OC[C@H](C[As](=O)(O)O)OC(=O)CCCCCCCCCCC
TGI [60]: 29.3 µM | TGI [1]: 19.3 µM | TGI [61]: 11.3 µM | TGI [50]: 5.09 µM | TGI [2]: 37.7 µM | TGI [62]: 21.9 µM | TGI [51]: 29.5 µM | TGI [3]: 17.1 µM | TGI [4]: 20.5 µM | TGI [5]: > 28.6 µM | TGI [6]: 32.7 µM | TGI [7]: 14 µM | TGI [8]: 25.6 µM | TGI [9]: 4.77 µM | TGI [10]: 9.45 µM | TGI [11]: 27.8 µM | TGI [12]: 21.7 µM | TGI [13]: 28.9 µM | TGI [14]: 31.7 µM | TGI [52]: > 42.5 µM | TGI [16]: 27 µM | TGI [63]: 47.2 µM | TGI [17]: 23.6 µM | TGI [18]: 22.4 µM | TGI [19]: > 81.4 µM | TGI [20]: 18.8 µM | TGI [21]: 26 µM | TGI [22]: 24.9 µM | TGI [23]: 3.85 µM | TGI [53]: 17.7 µM | TGI [24]: > 76.8 µM | TGI [25]: 15 µM | TGI [26]: 10.5 µM | TGI [27]: 11.9 µM | TGI [54]: 38.8 µM | TGI [64]: 14.8 µM | TGI [28]: > 52.5 µM | TGI [55]: 9.07 µM | TGI [29]: 21.2 µM | TGI [30]: 38.8 µM | TGI [31]: 4.54 µM | TGI [32]: 15.1 µM | TGI [33]: 5.15 µM | TGI [65]: 16.3 µM | TGI [34]: 22 µM | TGI [35]: 20.8 µM | TGI [36]: 4.07 µM | TGI [37]: 7.14 µM | TGI [38]: 6.48 µM | TGI [66]: 8.69 µM | TGI [39]: 16.9 µM | TGI [56]: 5.68 µM | TGI [40]: 24.7 µM | TGI [67]: 9.5 µM | TGI [68]: 44.2 µM | TGI [41]: 6.98 µM | TGI [42]: 20.3 µM | TGI [59]: > 100 µM | TGI [43]: 23.9 µM | TGI [44]: 26.7 µM | TGI [45]: > 100 µM | TGI [46]: 22 µM | TGI [47]: 21.7 µM | TGI [57]: 16.4 µM | TGI [48]: 38.6 µM | TGI [49]: 27.4 µM | TGI [58]: 24 µM | TGI [69]: 10.5 µM
